Data as given in the NIST ThermoML archive (doi:10.1021/je060271a).
Numbers after ± are expanded uncertainties.

Conditions: 343.15 K, Liquid, Vibrating tube method

CCCCCCC(=O)OCC(COC(=O)CCCCCC)(COC(=O)CCCCCC)COC(=O)CCCCCC [pentaerythritol tetraheptanoate]
Conditions	mass density [kg/m3]
18415 kPa	953.8 ± 1.2
18445 kPa	953.9 ± 1.2
18482 kPa	953.8 ± 1.2
18513 kPa	954 ± 1.2
18540 kPa	953.8 ± 1.2
18543 kPa	953.8 ± 1.2
18564 kPa	954 ± 1.2
18575 kPa	953.9 ± 1.2
18587 kPa	953.9 ± 1.2
18610 kPa	954 ± 1.2
18613 kPa	954 ± 1.2
18633 kPa	954 ± 1.2
18645 kPa	953.9 ± 1.2
18661 kPa	954.1 ± 1.2
18683 kPa	953.9 ± 1.2
18685 kPa	954.1 ± 1.2
18708 kPa	954 ± 1.2
18712 kPa	954 ± 1.2
18737 kPa	953.9 ± 1.2
18761 kPa	954.1 ± 1.2
18790 kPa	954 ± 1.2
18814 kPa	954 ± 1.2
18842 kPa	954 ± 1.2
18866 kPa	954.2 ± 1.2
18891 kPa	954 ± 1.2
18920 kPa	954.3 ± 1.2
18944 kPa	954.2 ± 1.2
18968 kPa	954.1 ± 1.2
18992 kPa	954.2 ± 1.2
19022 kPa	954.1 ± 1.2
19041 kPa	954.1 ± 1.2
19047 kPa	954.2 ± 1.2
19065 kPa	954.3 ± 1.2
19072 kPa	954.3 ± 1.2
19094 kPa	954.3 ± 1.2
19102 kPa	954.3 ± 1.2
19119 kPa	954.4 ± 1.2
19127 kPa	954.3 ± 1.2
19144 kPa	954.3 ± 1.2
19152 kPa	954.2 ± 1.2
19168 kPa	954.4 ± 1.2
19178 kPa	954.4 ± 1.2
19198 kPa	954.4 ± 1.2
19208 kPa	954.3 ± 1.2
19224 kPa	954.4 ± 1.2
19233 kPa	954.4 ± 1.2
19249 kPa	954.4 ± 1.2
19259 kPa	954.4 ± 1.2
19275 kPa	954.4 ± 1.2
19288 kPa	954.4 ± 1.2
19314 kPa	954.4 ± 1.2
19340 kPa	954.5 ± 1.2
19360 kPa	954.5 ± 1.2
19391 kPa	954.4 ± 1.2
19421 kPa	954.6 ± 1.2
19437 kPa	954.6 ± 1.2
19446 kPa	954.5 ± 1.2
19468 kPa	954.6 ± 1.2
19478 kPa	954.4 ± 1.2
19493 kPa	954.7 ± 1.2
19503 kPa	954.7 ± 1.2
19514 kPa	954.7 ± 1.2
19534 kPa	954.6 ± 1.2
19540 kPa	954.7 ± 1.2
19561 kPa	954.5 ± 1.2
19577 kPa	954.6 ± 1.2
19587 kPa	954.6 ± 1.2
19602 kPa	954.6 ± 1.2
19618 kPa	954.6 ± 1.2
19628 kPa	954.6 ± 1.2
19644 kPa	954.5 ± 1.2
19660 kPa	954.7 ± 1.2
19670 kPa	954.7 ± 1.2
19686 kPa	954.8 ± 1.2
19697 kPa	954.8 ± 1.2
19712 kPa	954.7 ± 1.2
19729 kPa	954.7 ± 1.2
19756 kPa	954.6 ± 1.2
19783 kPa	954.7 ± 1.2
19814 kPa	954.6 ± 1.2
19842 kPa	954.8 ± 1.2
19869 kPa	954.7 ± 1.2
19902 kPa	954.8 ± 1.2
19926 kPa	954.8 ± 1.2
19958 kPa	954.9 ± 1.2
19985 kPa	954.9 ± 1.2
20013 kPa	954.8 ± 1.2
20045 kPa	954.9 ± 1.2
20073 kPa	955 ± 1.2
20106 kPa	955 ± 1.2
20134 kPa	954.9 ± 1.2
20162 kPa	954.9 ± 1.2
20189 kPa	955 ± 1.2
20223 kPa	955 ± 1.2
20251 kPa	955.1 ± 1.2
20281 kPa	955 ± 1.2
20292 kPa	955.2 ± 1.2
20310 kPa	955.1 ± 1.2
20321 kPa	955.1 ± 1.2
20344 kPa	955.1 ± 1.2
20350 kPa	955.1 ± 1.2
20373 kPa	955.1 ± 1.2
20384 kPa	955.1 ± 1.2
20401 kPa	955 ± 1.2
20412 kPa	955.1 ± 1.2
20429 kPa	955.1 ± 1.2
20463 kPa	955.2 ± 1.2
20492 kPa	955.2 ± 1.2
20504 kPa	955.2 ± 1.2
20527 kPa	955.3 ± 1.2
20555 kPa	955.2 ± 1.2
20585 kPa	955.2 ± 1.2
20620 kPa	955.3 ± 1.2
20649 kPa	955.4 ± 1.2
20679 kPa	955.3 ± 1.2
20691 kPa	955.3 ± 1.2
20708 kPa	955.3 ± 1.2
20744 kPa	955.3 ± 1.2
20773 kPa	955.5 ± 1.2
20781 kPa	955.3 ± 1.2
20803 kPa	955.4 ± 1.2
20839 kPa	955.3 ± 1.2
20869 kPa	955.5 ± 1.2
20905 kPa	955.6 ± 1.2
20935 kPa	955.4 ± 1.2
20965 kPa	955.6 ± 1.2
20996 kPa	955.5 ± 1.2
21033 kPa	955.5 ± 1.2
21064 kPa	955.6 ± 1.2
21069 kPa	955.7 ± 1.2
21096 kPa	955.6 ± 1.2
21102 kPa	955.7 ± 1.2
21133 kPa	955.6 ± 1.2
21165 kPa	955.6 ± 1.2
21196 kPa	955.7 ± 1.2
21229 kPa	955.8 ± 1.2
21267 kPa	955.7 ± 1.2
21295 kPa	955.7 ± 1.2
21320 kPa	955.9 ± 1.2
21350 kPa	955.8 ± 1.2
21376 kPa	955.8 ± 1.2
21401 kPa	955.8 ± 1.2
21432 kPa	955.8 ± 1.2
21456 kPa	955.9 ± 1.2
21483 kPa	955.8 ± 1.2
21509 kPa	955.8 ± 1.2
21540 kPa	955.9 ± 1.2
21565 kPa	955.9 ± 1.2
21591 kPa	955.9 ± 1.2
21622 kPa	956 ± 1.2
21647 kPa	956 ± 1.2
21678 kPa	955.9 ± 1.2
21704 kPa	955.9 ± 1.2
21730 kPa	956.1 ± 1.2
21760 kPa	956 ± 1.2
21786 kPa	956.1 ± 1.2
21813 kPa	956.2 ± 1.2
21840 kPa	956.1 ± 1.2
21872 kPa	956.1 ± 1.2
21898 kPa	956.2 ± 1.2
21930 kPa	956.1 ± 1.2
21956 kPa	956 ± 1.2
21983 kPa	956.1 ± 1.2
22010 kPa	956.2 ± 1.2
22042 kPa	956.2 ± 1.2
22069 kPa	956.3 ± 1.2
22096 kPa	956.1 ± 1.2
22127 kPa	956.3 ± 1.2
22129 kPa	956.2 ± 1.2
22156 kPa	956.3 ± 1.2
22161 kPa	956.2 ± 1.2
22190 kPa	956.3 ± 1.2
22195 kPa	956.4 ± 1.2
22217 kPa	956.2 ± 1.2
22244 kPa	956.3 ± 1.2
22272 kPa	956.3 ± 1.2
22300 kPa	956.3 ± 1.2
22332 kPa	956.4 ± 1.2
22360 kPa	956.5 ± 1.2
22388 kPa	956.4 ± 1.2
22421 kPa	956.4 ± 1.2
22449 kPa	956.5 ± 1.2
22478 kPa	956.4 ± 1.2
22512 kPa	956.6 ± 1.2
22540 kPa	956.6 ± 1.2
22570 kPa	956.6 ± 1.2
22599 kPa	956.7 ± 1.2
22633 kPa	956.5 ± 1.2
22661 kPa	956.6 ± 1.2
22690 kPa	956.6 ± 1.2
22704 kPa	956.7 ± 1.2
22724 kPa	956.6 ± 1.2
22740 kPa	956.7 ± 1.2
22753 kPa	956.8 ± 1.2
22782 kPa	956.6 ± 1.2
22817 kPa	956.7 ± 1.2
22846 kPa	956.8 ± 1.2
22874 kPa	956.6 ± 1.2
22910 kPa	956.7 ± 1.2
22939 kPa	956.9 ± 1.2
22970 kPa	956.7 ± 1.2
23000 kPa	956.8 ± 1.2
23030 kPa	956.9 ± 1.2
23066 kPa	956.9 ± 1.2
23095 kPa	956.9 ± 1.2
23125 kPa	956.9 ± 1.2
23162 kPa	957 ± 1.2
23191 kPa	957 ± 1.2
23227 kPa	957 ± 1.2
23257 kPa	957.1 ± 1.2
23288 kPa	957 ± 1.2
23318 kPa	957 ± 1.2
23355 kPa	957 ± 1.2
23387 kPa	957.1 ± 1.2
23417 kPa	957.1 ± 1.2
23454 kPa	957.1 ± 1.2
23484 kPa	957.2 ± 1.2
23516 kPa	957.2 ± 1.2
23552 kPa	957.1 ± 1.2
23584 kPa	957.2 ± 1.2
23615 kPa	957.2 ± 1.2
23646 kPa	957.2 ± 1.2
23681 kPa	957.3 ± 1.2
